Common to all, as to assay: NCI anticancer screen, dose series, 48 h
Assay [1] deals with OVCAR-5 ovarian.
Assay [2] deals with CCRF-CEM leukemia.
Assay [3] deals with RPMI-8226 leukemia.
The subject of assay [4] is SK-MEL-28 melanoma.
Assay [5] deals with CAKI-1 renal.
The test system of assay [6] is NCI-H522 lung.
The subject of assay [7] is NCI-H23 lung.
For assay [8], the system named is MCF7 breast.
Assay [9] relates to TK-10 renal.
The test system of assay [10] is MALME-3M melanoma.
Assay [11] relates to SR leukemia.

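Test compounds were applied to cells in 96-well plates for 48 hours at 5 doses. GI50: concentration for 50% inhibition of growth. TGI is the concentration that stops growth completely.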 Where a SMILES comes first, the peptide text is derived from it. Bridges are numbered along the chain shown (N, C = ends). Roman numbers before positions name the chains, in order. [ ]: non-standard residue; d: D form. The star is where a group is joined. Heptadecanoyl = CCCCCCCCCCCCCCCCC(=O)*; Phg = N[CH](C(=O)O)c1ccccc1

As to `CCCCCCCCCCCCCCCCC(=O)N1CCCC1C(=O)NCC(=O)NC(C(=O)N1CCCC1C(=O)NC(CO)C(=O)NC(Cc1ccc(O)cc1)C(=O)NC(CCCCNC(=O)C1CCCN1C(=O)C(CCCCN)NC(=O)C(CCCCN)NC(=O)C(CCCCN)NC(=O)C(CCCNC(=N)N)NC(=O)C(CCCCN)NC(=O)C(N)C(C)C)C(=O)NC(CC(C)C)C(=O)NC(CCCNC(=N)N)C(=O)N1CCCC1C(=O)NCC(N)=O)c1ccccc1` (stereo not given) (I: Heptadecanoyl-PG[Phg]PSYKLRPG-NH2 / II: H-VKRKKKP; amide I:7-II:C; configuration not given here), the GI50 in [1] was 34.3 µM; in assay [2], 12 µM; in [3], 13.5 µM; in assay [4], 19.5 µM; in assay [5] it was 22.9 µM; in assay [6], 25.5 µM. The GI50 in [7] was 31.5 µM; in assay [8], 23.6 µM; in assay [9], 26.5 µM. Moreover, the TGI in [1] was over 100 µM; in assay [2] it was 31.5 µM; in assay [3], 35.3 µM; in assay [4], over 100 µM; in assay [5] it was 47.7 µM; in [6], 85.9 µM. Besides, the values for the TGI in [7], in assay [8] and in assay [9] were over 100 µM, over 100 µM and 66.6 µM, respectively.
Turning to `C/C(=C\[C@H]1C[C@@H]([C@@H]2CC[C@]34C[C@]23C=C[C@@H]2[C@@]3(C)CC=C5C[C@@H](c6ccccc6)OC[C@]5(C)[C@@H]3C[C@@H](O)[C@]24C)C(=O)O1)CO`, the TGI was 34.2 µM in [1]; over 100 µM in assay [2]; over 96.4 µM in assay [3]; over 100 µM in assay [4]; 28.3 µM in assay [5]; 89.3 µM in assay [6]. The TGI was 36 µM in [7], 82.5 µM in assay [10], over 100 µM in assay [8] and over 56 µM in [9].
For the compound `C/C(=C\c1ccc2c(c1)OCO2)[N+](=O)[O-]`, the TGI in assay [1] was 15.1 µM; in assay [2], over 100 µM; in assay [3] it was over 100 µM; in assay [4] it was 6.02 µM; in assay [5], 4.41 µM; in assay [6], 3.21 µM. In addition, the TGI was 2.39 µM in [11], 7.54 µM in [7], 5.68 µM in assay [10] and 8.63 µM in assay [9].
With `CC1(C)CC[C@]2(C(=O)O)CC[C@]3(C)C(=CC[C@@H]4[C@@]5(C)CC[C@@H]6OC(C)(C)OC[C@@]6(C)[C@@H]5CC[C@]43C)[C@H]2C1`, the TGI amounted to 32.2 µM in [1]; 37.1 µM in assay [2]; 66 µM in [3]; 29.2 µM in assay [4]; 29 µM in assay [6]; 34 µM in assay [11]. For the same compound, the TGI in assay [10] amounted to 25.6 µM; in assay [9] it was 32.7 µM.
Regarding `N.N.N.N.O=S(=O)([O-])[O-].[Co+3].[OH3+].[OH3+]`, the TGI in assay [1], in assay [2], in [3], in assay [4], in [6] and in assay [7] was over 100 µM throughout. Also, the TGI in assay [10] and in assay [9] was over 100 µM throughout.
Consider `Cn1c(=O)c2c(nc3sc4ncccc4c(=O)n32)n(C)c1=O`, for which the TGI in assay [1], in [2], in assay [3], in [4], in assay [5] and in assay [7] was over 100 µM each time. Further, the TGI in assay [8] and in [9] was over 100 µM throughout.
In the case of `CC1OC2OC3C(OCC(O)C3O)OC(=O)[C@]34CCC(C)(C)CC3C3=CCC5[C@@]6(C)C[C@H](O)[C@H](OC7OC(CO)C(O)C(O)C7OC7OC(COC(=O)CC(C)(O)CC(=O)OC1C(O)C2O)C(O)C(O)C7O)[C@@](C)(CO)C6CC[C@@]5(C)[C@]3(C)CC4` (stereo not given in full), the TGI turned out to be 2.85 µM in assay [1]; 2.79 µM in [4]; 2.74 µM in assay [5]; 3.08 µM in [6]; 3.08 µM in assay [7]; 15.2 µM in [8]. In [9], this compound yielded a TGI of 2.89 µM.
For `CO/N=C/c1c(-c2ccc(Cl)cc2)c(/C=N/OC)n2c1sc1ccccc12`, the TGI in assay [1], in assay [2], in assay [4], in [5], in assay [6] and in assay [7] was over 100 µM in each case. For the same compound, the TGI in [10], in [8] and in assay [9] was over 100 µM in each case.
Regarding `CC1(C)OC([C@H](O)CO)C([C@H]2NCCS2)O1` (stereo not given in full), the TGI in assay [1], in assay [2], in assay [3], in [4], in [5] and in [6] was over 100 µM each time. For the same compound, the TGI in [11], in [7], in assay [10] and in [9] was over 100 µM each time.
Take `O=C1c2cccnc2-c2nccc3ccnc1c23`: the TGI was found to be 4.2 µM in assay [1]; 0.156 µM in assay [2]; 0.894 µM in assay [3]; 2.58 µM in assay [4]; 1.32 µM in assay [5]; 0.666 µM in assay [6]. The TGI in assay [7] is 2.11 µM; in assay [10] it was 3.28 µM; in assay [8], 1.7 µM.
`CCC(/C=C/c1ccccc1)=N\N=C(\C=C\c1ccccc1)CC`: the TGI in assay [1], in assay [2], in assay [3], in [4], in assay [6] and in [11] was over 100 µM in each case. For the same compound, the TGI in assay [7], in assay [10] and in assay [9] was over 100 µM throughout.
With `Clc1cccc(Cl)c1C1SCc2nc3ncccc3n21` (stereo not given), the TGI in assay [1], in assay [2], in assay [3], in assay [4], in assay [5] and in assay [6] was over 100 µM each time. Further, the TGI in assay [11], in assay [7], in assay [10] and in [9] was over 100 µM in each case.
As to `Clc1ccc(N=Cc2cc3cc(Br)ccc3nc2Cl)cc1`, the TGI is over 50 µM in assay [1]; 32.5 µM in assay [2]; 38.4 µM in [3]; over 50 µM in [4]; over 50 µM in [5]; over 50 µM in assay [6]. In addition, the values for the TGI in assay [11], in [7] and in assay [10] were 42.2 µM, over 50 µM and over 50 µM, respectively.

The record behind these values is PubChem BioAssay (NCI).
